ChEMBL document CHEMBL1201862, “PubChem BioAssay data set” (2004)
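Values below derive from 48-hour exposures of cells grown in 96-well plates, with endpoints linearly interpolated between the two concentrations bracketing the appropriate inhibition level. Here, GI50 denotes the concentration required for 50% inhibition of growth.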 The source made the active and inactive calls. No stated cut-off is given here; in the data, active = GI50 up to about 1.1 µM and inactive = higher.

Experiments:
Test in all cases: inhibition of tumour cell growth, NCI panel, 48 h
U-251 = system: U-251
NCI-H23 = system: NCI-H23
HCT-116 = system: HCT-116
SF-268 = system: SF-268
HCC 2998 = system: HCC 2998
SK-MEL-28 = system: SK-MEL-28
OVCAR-3 = system: OVCAR-3
CAKI-1 = system: CAKI-1
TK-10 = system: TK-10
SK-MEL-5 = system: SK-MEL-5
KM12 = system: KM12
SNB-19 = system: SNB-19
HL-60 = system: HL-60
CCRF-CEM = system: CCRF-CEM
OVCAR-8 = system: OVCAR-8
OVCAR-4 = system: OVCAR-4
MOLT-4 = system: MOLT-4
MDA-MB-231 = system: MDA-MB-231
DU-145 = system: DU-145
T47D = system: T47D

With `COC(=O)C(CCCCCCCC(C(=O)OC)C1=Nc2nnc(N)n2C1=O)C1=Nc2nnc(N)n2C1=O` (stereo not given) the GI50 (U-251) was > 100 µM (inactive), the GI50 (NCI-H23) was > 100 µM (inactive) and the GI50 (HCT-116) was > 100 µM (inactive). For the same molecule, the GI50 (SF-268) was > 100 µM (inactive), the GI50 (HCC 2998) was > 100 µM (inactive) and the GI50 (SK-MEL-28) was > 100 µM (inactive). For the same molecule, the GI50 (OVCAR-3) was > 100 µM (inactive), the GI50 (CAKI-1) was 11.2 µM (inactive) and the GI50 (TK-10) was > 100 µM (inactive). For the same molecule, the GI50 (SK-MEL-5) was > 100 µM (inactive), the GI50 (KM12) was > 100 µM (inactive) and the GI50 (SNB-19) was > 100 µM (inactive). The GI50 (HL-60) was > 100 µM (inactive), the GI50 (CCRF-CEM) was > 100 µM (inactive) and the GI50 (OVCAR-8) was 94.8 µM (inactive). For the same molecule, the GI50 (OVCAR-4) was > 100 µM (inactive) and the GI50 (MOLT-4) was > 100 µM (inactive).

`O=c1[nH]nc(Cc2ccc(Cl)cc2)n1Nc1ccccc1` was tested, and the GI50 (MDA-MB-231) was > 100 µM (inactive), the GI50 (U-251) was > 100 µM (inactive) and the GI50 (NCI-H23) was > 100 µM (inactive). For the same molecule, the GI50 (HCT-116) was > 100 µM (inactive), the GI50 (HCC 2998) was > 100 µM (inactive) and the GI50 (DU-145) was 4.94 µM (inactive). The GI50 (SK-MEL-28) was > 100 µM (inactive), the GI50 (OVCAR-3) was > 100 µM (inactive) and the GI50 (CAKI-1) was > 100 µM (inactive). For the same molecule, the GI50 (TK-10) was > 100 µM (inactive), the GI50 (SK-MEL-5) was > 100 µM (inactive) and the GI50 (T47D) was > 100 µM (inactive). The GI50 (KM12) was > 100 µM (inactive), the GI50 (SNB-19) was > 100 µM (inactive) and the GI50 (CCRF-CEM) was > 100 µM (inactive). For the same molecule, the GI50 (OVCAR-8) was > 100 µM (inactive), the GI50 (OVCAR-4) was > 100 µM (inactive) and the GI50 (MOLT-4) was > 100 µM (inactive).

In the case of `C[C@@H]1CCC2C(C)(C)C(/C=C\C=O)C3(C)OC213` (stereo not given in full), the GI50 (MDA-MB-231) is reported as 49.2 µM (inactive), the GI50 (U-251) is reported as 28.6 µM (inactive) and the GI50 (NCI-H23) is reported as 35.6 µM (inactive). The GI50 (HCT-116) was 27.9 µM (inactive), the GI50 (SF-268) was 27.3 µM (inactive) and the GI50 (HCC 2998) was 48.5 µM (inactive). The GI50 (DU-145) was 29.1 µM (inactive), the GI50 (SK-MEL-28) was 44 µM (inactive) and the GI50 (OVCAR-3) was 33.4 µM (inactive). The GI50 (CAKI-1) was > 100 µM (inactive), the GI50 (TK-10) was 72.6 µM (inactive) and the GI50 (SK-MEL-5) was 20.3 µM (inactive). For the same molecule, the GI50 (KM12) was 36.1 µM (inactive), the GI50 (SNB-19) was 45.4 µM (inactive) and the GI50 (OVCAR-8) was 20.2 µM (inactive). The GI50 (OVCAR-4) was 54.5 µM (inactive) and the GI50 (MOLT-4) was 31.8 µM (inactive).

For `CCOC(=O)c1nnsc1N/N=C\c1ccc([N+](=O)[O-])cc1`, the GI50 (MDA-MB-231) was 79.8 µM (inactive), the GI50 (U-251) was > 100 µM (inactive) and the GI50 (NCI-H23) was > 100 µM (inactive). The GI50 (HCT-116) was > 100 µM (inactive), the GI50 (SF-268) was 77.4 µM (inactive) and the GI50 (HCC 2998) was > 100 µM (inactive). The GI50 (DU-145) was > 100 µM (inactive), the GI50 (SK-MEL-28) was > 100 µM (inactive) and the GI50 (OVCAR-3) was > 100 µM (inactive). For the same molecule, the GI50 (TK-10) was > 100 µM (inactive), the GI50 (SK-MEL-5) was > 100 µM (inactive) and the GI50 (T47D) was > 100 µM (inactive). The GI50 (KM12) was > 100 µM (inactive), the GI50 (SNB-19) was 70.1 µM (inactive) and the GI50 (CCRF-CEM) was > 100 µM (inactive). The GI50 (OVCAR-8) was 54.7 µM (inactive), the GI50 (OVCAR-4) was > 100 µM (inactive) and the GI50 (MOLT-4) was > 100 µM (inactive).

For `CCN1CCCC(Nc2cc(C)nc(NC(=N)Nc3ccc(Cl)c(Cl)c3)n2)C1` (stereo not given), the GI50 (MDA-MB-231) was 1.62 µM (inactive), the GI50 (U-251) was 1.3 µM (inactive) and the GI50 (NCI-H23) was 1.77 µM (inactive). For the same molecule, the GI50 (HCT-116) was 1.26 µM (inactive), the GI50 (SF-268) was 1.96 µM (inactive) and the GI50 (HCC 2998) was 0.551 µM (active). The GI50 (DU-145) was 4.43 µM (inactive), the GI50 (SK-MEL-28) was 1.77 µM (inactive) and the GI50 (OVCAR-3) was 1.67 µM (inactive). The GI50 (CAKI-1) was 1.56 µM (inactive), the GI50 (TK-10) was 1.69 µM (inactive) and the GI50 (SK-MEL-5) was 2.08 µM (inactive). For the same molecule, the GI50 (KM12) was 1.85 µM (inactive), the GI50 (SNB-19) was 2.14 µM (inactive) and the GI50 (HL-60) was 0.216 µM (active). For the same molecule, the GI50 (CCRF-CEM) was 0.63 µM (active), the GI50 (OVCAR-4) was 1.85 µM (inactive) and the GI50 (MOLT-4) was 0.658 µM (active).

`C=C1c2nc3ccccc3n2C=C(c2ccccc2)N1c1ccc(OC)cc1` was tested, and the GI50 (MDA-MB-231) was 40.2 µM (inactive), the GI50 (U-251) was 37.8 µM (inactive) and the GI50 (NCI-H23) was 11.4 µM (inactive). The GI50 (HCT-116) was 17.5 µM (inactive), the GI50 (DU-145) was 26.4 µM (inactive) and the GI50 (OVCAR-3) was 57.8 µM (inactive). For the same molecule, the GI50 (CAKI-1) was 25.5 µM (inactive), the GI50 (TK-10) was 12.5 µM (inactive) and the GI50 (SK-MEL-5) was 11.1 µM (inactive). For the same molecule, the GI50 (KM12) was 11.4 µM (inactive), the GI50 (HL-60) was 29.8 µM (inactive) and the GI50 (CCRF-CEM) was 22.8 µM (inactive). The GI50 (OVCAR-8) was 13.2 µM (inactive), the GI50 (OVCAR-4) was 13.7 µM (inactive) and the GI50 (MOLT-4) was 18.9 µM (inactive).

For `COC(=O)C1=C(C(=O)OC)SC(=C2c3ccsc3-c3sccc32)S1`, the GI50 (MDA-MB-231) was > 100 µM (inactive), the GI50 (U-251) was 28.3 µM (inactive) and the GI50 (NCI-H23) was 16.1 µM (inactive). The GI50 (HCT-116) was 25.9 µM (inactive), the GI50 (SF-268) was 19.9 µM (inactive) and the GI50 (HCC 2998) was 40.6 µM (inactive). For the same molecule, the GI50 (DU-145) was > 100 µM (inactive), the GI50 (SK-MEL-28) was 24.3 µM (inactive) and the GI50 (OVCAR-3) was 31 µM (inactive). The GI50 (CAKI-1) was > 100 µM (inactive), the GI50 (TK-10) was 24.5 µM (inactive) and the GI50 (SK-MEL-5) was 31.9 µM (inactive). For the same molecule, the GI50 (KM12) was 40.3 µM (inactive), the GI50 (SNB-19) was 67.6 µM (inactive) and the GI50 (HL-60) was 24 µM (inactive). For the same molecule, the GI50 (CCRF-CEM) was 38.1 µM (inactive), the GI50 (OVCAR-8) was 29.1 µM (inactive) and the GI50 (OVCAR-4) was > 10 µM (inactive). For the same molecule, the GI50 (MOLT-4) was 39.4 µM (inactive).

`Cc1c2cccc-2c(N(C)C)cc2c1[nH]c1ccccc12` was tested, and the GI50 (MDA-MB-231) was 10.1 µM (inactive), the GI50 (U-251) was 1.93 µM (inactive) and the GI50 (NCI-H23) was 8.93 µM (inactive). The GI50 (HCT-116) was 3.33 µM (inactive), the GI50 (SF-268) was 5.13 µM (inactive) and the GI50 (DU-145) was 14.6 µM (inactive). The GI50 (SK-MEL-28) was 2.02 µM (inactive), the GI50 (OVCAR-3) was 4.32 µM (inactive) and the GI50 (CAKI-1) was 17.5 µM (inactive). The GI50 (TK-10) was 4.63 µM (inactive), the GI50 (SK-MEL-5) was 5.64 µM (inactive) and the GI50 (T47D) was 1.86 µM (inactive). For the same molecule, the GI50 (KM12) was 2.74 µM (inactive), the GI50 (SNB-19) was 9.27 µM (inactive) and the GI50 (HL-60) was 2.35 µM (inactive). The GI50 (CCRF-CEM) was 3.83 µM (inactive), the GI50 (OVCAR-8) was 3.21 µM (inactive) and the GI50 (MOLT-4) was 4.35 µM (inactive).
